Data on 1 compound can be found in patent US3931396A, “Method of preparation of a composition having a base of 99^m technetium for diagnosis by scintigraphy” (priority 1974, dated 1976).

Structures are written as SMILES.

The subject of data set [1] is pyrophosphatases. The note with it: cited from earlier work.
In data set [2] the test system is bone. The data set is described as follows: Bone scintigraphy, pyrophosphate compared to polyphosphate. To be noted: as compared to polyphosphates, in words. The class given is in vivo. How it is done: The animal was anesthetized with ethylcarbamate after injection and immediately before scintigraphy was carried out. Scintigraphy was carried out after 5 minutes, 1 hour, 2 hours and 4 hours following injection. Two recording methods were applied:
a. conventional scanning,
b. scanning, followed by information treatment for calculating surface activities.

In the case of `O=P(O)(O)OP(=O)(O)O` [pyrophosphate], the hydrolysis by pyrophosphatases result in data set [1] is “rapid hydrolysis”. In data set [2], the “time-period before bone scintigraphy (required by elimination from organs)” value is “shorter than in the case of polyphosphates”.
